The results in this text go back to patent US4268680A, “Heterocyclic derivatives of 1-(1,3-dioxolan-2-ylmethyl)-1H-imidazoles and 1H-1,2,4-triazoles” (Janssen Pharmaceutica N.V., priority 1979, dated 1981).

This assay relates to Candida albicans. In words: Experiment B: Activity of compounds (I) against crop candidosis in turkeys. In kind it is in vivo. Conditions: Table II; medicated feed for 13 consecutive days; crops of 50% of the animals completely negative for Candida albicans. Here is the method:
Experiment B: Activity of compounds (I) against crop candidosis in turkeys. Turkeys of 14 days old were infected in the crop with 4.10^6 Candida albicans cells, grown on Sabouraud broth for 48 hours at 37° C. and diluted with saline. The volume of the inoculum was 1 ml. The drug under investigation were premixed in 500 mg of lacton and thereafter admixed in 1000 g of meal without any additives. The concentration of the drug under investigation in the meal was expressed in mg/kg. The animals were given the medicated feed for 13 consecutive days starting on the day of infection. At the end of the experiment all animals were sacrificed. At autopsy the crops were removed, emptied and grinded in an ultra-turrax mixer in 15 ml of sterile saline. Colony counting was done on Sabouraud agar and the results given in Tables I and II represent the ED50, i.e., the dose of the drug whereby the crops of 50% of the animals were completely negative for Candida albicans.

Regarding `Clc1ccc(C2(Cn3cncn3)OCC(COc3ccc(-n4ccnc4)cc3)O2)c(Cl)c1` (stereo not shown), the “Crop candidosis in Turkeys: EO50 in mg/kg in feed” value was 8 mg/kg in feed.
